Measurements published in patent publication US4829076A, “Novel dihydropyridines having calcium antagonistic and antihypertensive activity” (Alkaloida Vegyeszeti Gyar, priority 1986, dated 1989).
Read-outs that look alike come from different tables or passages of the source.

What was measured:
[1] = system: PGF2alpha induced uterus contractions (isolated rat uterus); test: In vitro uterus relaxant activity in the isolated rat uterus (inhibition of PGF2alpha induced contraction); details: 10^-6 M test compound
Experimental: The test was performed according to the method of Gaddum and Hammeed [Brit. […] The inhibitory activity of 10^-6 M doses of the test compounds on the PGF2alpha induced uterus contractions was determined.

[2] = system: anesthetized, normotensive cats; test: Hypotensive effect in anesthetized, normotensive cats; type: in vivo, cat; details: 1 mg/kg id.
Experimental: A tube was inserted in the trachea of cats anesthetized with ip.35 mg/kg of pentobarbital sodium to ensure spontaneous respiration. The femoral artery and vein were both cannulated unilaterally. The vegetative test compounds (adrenaline, isoproterenol) were administered through the venous cannule. The mean arterial blood pressure was measured by joining the arterial cannule to a Statham P23Db pressure transducer and electromanometer. The heart rate was determined by a cardiotachometer triggered by arterial pulse-wave.
Various doses of the test compounds were administered through a cannule inserted into the duodenum.

[3] = system: spontaneously hypertensive conscious rats; test: Antihypertensive effect in spontaneously hypertensive conscious rats ("SH" rats); type: in vivo, rat (Wistar-Okamoto); details: for change in vivo at 10 mg/kg / change in vivo at 2.5 mg/kg: Rattus norvegicus, po
Experimental: The blood pressure of rats was measured before treatment and hourly after drug administration till the 24th posttreatment hour. The test compounds were administered orally, by gavage.

[4] = 10 mg/kg p.o., 2 h, read-out: Systolic blood pressure reduction in %, 2 h
[5] = 10 mg/kg p.o., 5 h, read-out: Systolic blood pressure reduction in %, 5 h
[6] = 10 mg/kg p.o., 24 h, read-out: Systolic blood pressure reduction in %, 24 h

Row | Compound | Inhibition of PGF2alpha induced contraction [1] [%] | Mean arterial pressure, 5 min [2] [Hgmm] | Mean arterial pressure, 15 min [2] [Hgmm] | Mean arterial pressure, 30 min [2] [Hgmm] | Mean arterial pressure, 60 min [2] [Hgmm] | Mean arterial pressure, 120 min [2] [Hgmm] | Systolic blood pressure, 2 h ([3]; 10 mg/kg p.o., 2 h) [Hgmm] | Systolic blood pressure, 5 h ([3]; 10 mg/kg p.o., 5 h) [Hgmm] | Systolic blood pressure, 24 h ([3]; 10 mg/kg p.o., 24 h) [Hgmm] | change in vivo at 10 mg/kg [3, 4] [%] | change in vivo at 10 mg/kg [3, 5] [%] | change in vivo at 10 mg/kg [3, 6] [%] | Systolic blood pressure, 2 h ([3]; 2.5 mg/kg p.o., 2 h) [Hgmm] | Systolic blood pressure, 5 h ([3]; 2.5 mg/kg p.o., 5 h) [Hgmm] | Systolic blood pressure, 24 h ([3]; 2.5 mg/kg p.o., 24 h) [Hgmm] | change in vivo at 2.5 mg/kg ([3]; 2.5 mg/kg p.o., 2 h, read-out: Systolic blood pressure reduction in %, 2 h) [%] | change in vivo at 2.5 mg/kg ([3]; 2.5 mg/kg p.o., 5 h, read-out: Systolic blood pressure reduction in %, 5 h) [%] | change in vivo at 2.5 mg/kg ([3]; 2.5 mg/kg p.o., 24 h, read-out: Systolic blood pressure reduction in %, 24 h) [%]
1 | COC(=O)C1=C(C)NC(C)=C(C(=O)OC)C1c1ccccc1NC(=O)c1ccccc1[N+](=O)[O-] [Example 8] | 96.7 |  |  |  |  |  |  |  |  |  |  |  |  |  |  |  |  | 
2 | COC(=O)C1=C(C)NC(C)=C(C(=O)OC)C1c1ccccc1NS(C)(=O)=O [Example 41, 2,6-Dimethyl-4-n2-methanesulfonylamidophenyl)-3,5-bis(methoxycarbonyle-1,4-dihydropyridine] |  | 90 | 80 | 85 |  |  |  |  |  |  |  |  |  |  |  |  |  | 
3 | COC(=O)C1=C(C)NC(C)=C(C(=O)OC)C1c1ccccc1NC(=O)c1ccccc1C [Example 21] |  | 90 | 95 | 100 | 110 | 110 | 175.2 | 167.8 | 201.4 | -10 | -14 | 4 |  |  |  |  |  | 
4 | COCCOC(=O)C1=C(C)NC(C)=C(C(=O)OC)C1c1ccccc1NC(=O)C(F)(F)F (centres unmarked) [Example 36, 2,6-Dimethyl-3-methoxycarbonyl-5-(2-methoxyethoxycarbonyl)-4-(2-trifluoroacetamidophenyl)-1,4-dihydropyridine] |  |  |  |  |  |  | 172.8 | 172.4 | 222.0 | -19 | -19 | 4 |  |  |  |  |  | 
5 | COC(=O)C1=C(C)NC(C)=C(C(=O)OC(C)C)C1c1ccccc1NC(=O)C(F)(F)F (centres unmarked) [Example 37, 2,6-Dimethyl-3-isopropoxycarbonyl-5-methoxycarbonyl-4-(2-trifluoroacetamidophenyl)-1,4-dihydrophyridine] |  | 150 | 100 | 100 | 100 | 135 |  |  |  |  |  |  |  |  |  |  |  | 
6 | COC(=O)C1=C(C)NC(C)=C(C(=O)OC)C1c1ccccc1NC(=O)c1ccco1 [Example 10] | 94.0 | 60 | 70 | 80 | 85 |  |  |  |  |  |  |  |  |  |  |  |  | 
7 | COCCOC(=O)C1=C(C)NC(C)=C(C(=O)OC)C1c1ccccc1NC(=O)c1ccc([N+](=O)[O-])cc1 (centres unmarked) [Example 28] |  | 137 | 105 | 97 | 100 | 115 | 174.8 | 163.5 | 202.4 | -10 | -16 | 4 |  |  |  |  |  | 
8 | COC(=O)C1=C(C)NC(C)=C(C(=O)OC)C1c1ccccc1NS(=O)(=O)c1ccc([N+](=O)[O-])cc1 [Example 42, 2,6-Dimethyl-3,5bis(methoxycarbonyl)-4-[2-(4-nitrobenzenesulfonamido)-phenyl]-1,4-dihydropyridine] | 88.0 |  |  |  |  |  |  |  |  |  |  |  |  |  |  |  |  | 
9 | COC(=O)C1=C(C)NC(C)=C(C(=O)OC)C1c1ccccc1NC(=O)c1ccccc1 [Example 12] | 83.3 | 115 | 92 | 90 | 97 | 145 | 164 | 166.0 | 190.8 | -14 | -13 | 0 |  |  |  |  |  | 
10 | COC(=O)C1=C(C)NC(C)=C(C(=O)OC)C1c1ccccc1NC(=O)c1ccc(OC)cc1 [Example 14] |  | 150 | 75 | 85 | 95 | 110 | 165 | 164.5 | 206.8 | -17 | -17 | 4 |  |  |  |  |  | 
11 | COC(=O)C1=C(C)NC(C)=C(C(=O)OC)C1c1ccccc1NC(=O)c1cccc(C)c1 [Example 20] |  | 140 |  | 105 | 105 | 120 |  |  |  |  |  |  |  |  |  |  |  | 
12 | CCCCCCCC(=O)Nc1ccccc1C1C(C(=O)OC)=C(C)NC(C)=C1C(=O)OC [Example 18] |  | 75 |  | 100 | 100 |  | 179.2 | 178 | 192.6 | -11 | -11 | -4 |  |  |  |  |  | 
13 | COC(=O)C1=C(C)NC(C)=C(C(=O)OC)C1c1ccccc1NC(=O)c1ccc(Cl)cc1 [Example 6] |  | 115 | 85 | 65 | 70 | 75 |  |  |  |  |  |  |  |  |  |  |  | 
14 | COC(=O)C1=C(C)NC(C)=C(C(=O)OC)C1c1ccccc1NC(=O)C=Cc1ccc([N+](=O)[O-])cc1 [Example 11] | 77.8 | 147 | 130 | 125 | 120 | 132 | 140 | 157.8 | 178.8 | -26 | -16 | -5 |  |  |  |  |  | 
15 | CCc1ccc(C(=O)Nc2ccccc2C2C(C(=O)OC)=C(C)NC(C)=C2C(=O)OC)cc1 [Example 22] |  | 120 | 110 | 105 | 85 | 85 |  |  |  |  |  |  | 142.2 | 144.0 | 191.4 | -27 | -26 | -2
16 | COC(=O)C1=C(C)NC(C)=C(C(=O)OC)C1c1ccccc1NC(=O)C=Cc1ccccc1 [Example 9] | 94.3 | 125 | 85 | 65 | 75 | 102 | 166.6 | 166.6 | 192.0 | -13 | -13 | 1 |  |  |  |  |  | 
